Entries after “also recorded” stand apart in the source; their conditions may differ.
How the values were obtained:
[1] = test system: isolated, pressured rat renal interlobular arteries; assay: Isolated vessel studies: vasoconstrictor response (vascular diameter) to cumulative doses of 20-HETE analogs; format: cell-based; details: 10^−8 to 10^−6 M (up to 1 μM), indomethacin, baicalein, 17-ODYA present, diameter 2 to 3 minutes after addition
Experimental: General. Experiments were performed on 10 to 12-week old male Sprague-Dawley rats purchased from Harlan Sprague-Dawley Laboratories (Indianapolis, Ind.). The rats were housed in the animal care facility at the Medical College of Wisconsin, which is approved by the American Association for the Accreditation of Laboratory Animal Care. The animals had free access to food and water. All protocols involving animals received approval by the Animal Care Committee of the Medical College of Wisconsin.
(§1) Isolated vessel studies. Interlobular arterioles (70-120 μm inner diameter) were microdissected from the kidneys of rats. The vessels were mounted on glass micropipettes in a perfusion chamber containing physiological saline solution equilibrated with a 95% O2-5% CO2 gas mixture and maintained at 37° C. The vessel were secured to the pipettes and side branches were tied off with 10-0 silk suture. The inflow pipette was connected to a pressurized reservoir to control of intraluminal perfusion pressure, which was monitored using a transducer (Cobe, Lakewood, Colo.). The vessels were stretched to in vivo length measured before microdissection. The outflow cannula was clamped off and intraluminal pressure was maintained at 90 mm Hg during the experiment. Vascular diameters were measured with a video system composed of a stereo microscope (Carl Zeiss, Inc., Germany), a CCTV television camera (KP-130AU, Hitachi, Japan), a videocassette recorder (AG-7300, Panasonic, Japan), a television monitor (CVM-1271, Sony, Japan), and a video measuring system (VIA-100, Boeckeler Instrument Co., Tucson, Ariz.).
(§2) The composition of the perfusate and the bath was (in mM): 119 NaCl, 4.7 KCl, 1.17 MgSO4, 1.6 CaCl2, 12 NaHCO3, 1.18 NaH2PO4, 0.03 EDTA and 10 glucose, pH 7.4. Indomethacin (5 μM), baicalein (0.5 μM) and 17-ODYA (1 μM) were added to the bath to block the endogenous formation and metabolism of eicosanoids via the cyclooxygenase, lipoxygenase and cytochrome P450 pathways. After the equilibration period, cumulative dose response curves were generated for each of the 20-HETE analogs.
Effect of the position of the hydroxyl group on the vasoconstrictor response to 20-HETE. These experiments examined the effects of increasing concentrations of 5(S)-, 8(S)-, 12(S)-, 15(S)-, and 19(S)-HETE on the diameter of isolated, pressured rat renal interlobular arteries. All of these analogs have the same number of carbons, double bonds and molecular weight as 20-HETE (FIG. 1). The major difference between these compounds and 20-HETE is the position of the OH group along the carbon chain. Additional experiments were performed with arachidonic acid and 20-carboxyarachidonic acid, which are structurally similar to 20-HETE but lack a hydroxyl group on the 20th carbon and 20-hydroxyeicosa-6, 15-dienoic acid (reverse 20-HETE) which has the carboxy- and hydroxy-moieties on the 1st and 20th carbons reversed. Cumulative dose response curves were generated for each compound (10^−8 to 10^−6 M) in the presence of indomethacin, baicalein, and 17-ODYA. Vascular diameters were recorded 2 to 3 minutes after the addition of the compounds to the bath.
Effect of the double bonds and carbon chain length to the vasoconstrictor response to 20-HETE. We next examined the importance of the double bonds and the length of the carbon chain to the vasoconstrictor response to 20-HETE. In these studies, the double bonds in the 20-HETE molecule were removed creating partial and saturated 20-HETE derivatives (20-hydroxyeicosa-6(Z),15(Z) dienoic acid; 20-hydroxyeicosanoic acid, FIG. 1). 20-HETE was also shortened by one carbon, creating a 19-carbon analog (19-hydroxynonadeca-5(Z),8(Z),11(Z),14(Z)-tetraenoic acid, FIG. 1) and double bonds were removed, creating a saturated 19-carbon analog (19 hydroxynonadecanoic acid, FIG. 1). […]

[2] = test system: vasoconstrictor response to 20-HETE in isolated renal interlobular arteries; assay: 20-HETE antagonist activity: dose response curves to 20-HETE before and after addition of analog; format: cell-based, rat; details: for effect of analog on the vasoconstrictor response to 20-HETE (antagonist activity): analog 0.5 or 1 μM in bath, 20-HETE 10^−8 to 10^−6 M; for reduction of the vasoconstrictor response to 20-HETE: analog 1 μM in bath, for arachidonic acid response to 1 μM 20-HETE
Experimental: We also disclose below a test for 20-HETE antagonist activity. In this analysis, test compounds were analyzed by a cumulative dose response curve to 20-HETE generated before and after the addition of the test compound. […] We envision suitable antagonists as similarly blocking the vasoconstrictor response.
as §1, §2
20-HETE antagonist activity. […] In these experiments, cumulative dose response curves to 20-HETE (10^−8 to 10^−6 M) were generated before and after addition of 5(S)-HETE (0.5 μM), 8(S)-HETE (1 μM), 12(S)-HETE (0.5 μM), 15(S)-HETE (1 μM), 19(S)-HETE (1 μM), the C19-analog (1 μM), arachidonic acid (1 μM), 20-carboxy-arachidonic acid (1 μM), reverse 20-HETE (1 μM), saturated 20-HETE (1 μM), and the saturated C19-analog (1 μM) to the bath. Vascular diameters were recorded 2 to 3 minutes after the addition of each dose of 20-HETE to the bath.

**Q.** With `O=C(O)CCCC/C=C\CCCCCCC/C=C\CCCCO` [20-Hydroxyeicosa-6(Z),15(Z)-dienoic Acid] as the compound, how does the “effect on the diameter of renal interlobular arteries (vasoconstrictor/agonist activity)” value (“effect … (vasoconstrictor/agonist activity)” for short) [1] read?
**A.** eliminated agonist activity

**Q.** And the “effect of analog on the vasoconstrictor response to 20-HETE (antagonist activity)” value (“effect of analog” below) [2]?
**A.** completely blocked

**Q.** And the “effect of analog” value ([2]; listed as partially saturated reverse 20-HETE)?
**A.** completely eliminated the response to 20-HETE

**Q.** For `CC(C)(O)CCCCC=CCC=CCC=CCC=CCCCC(=O)O` [dimethyl 20-HETE, 20,20-Dimethyl-20-HETE], which “effect … (vasoconstrictor/agonist activity)” value [1] is on record?
**A.** just as potent constrictors as 20-HETE

**Q.** What about the “effect … (vasoconstrictor/agonist activity)” value ([1]; listed as dimethyl derivative) of the same compound?
**A.** just as potent vasoconstrictors as 20-HETE

**Q.** For `C[C@H](O)CCC/C=C\C/C=C\C/C=C\C/C=C\CCCC(=O)O` [19(S)-HETE], which “effect … (vasoconstrictor/agonist activity)” value [1] is on record?
**A.** no significant effect

**Q.** What about the “effect … (vasoconstrictor/agonist activity)” value ([1]; listed as 19-HETE) of the same compound?
**A.** no effect

**Q.** What about the “effect of analog” value ([2]; listed as 19-HETE) of the same compound?
**A.** completely eliminated the response to 20-HETE; also recorded: very effective antagonists

**Q.** Which “effect … (vasoconstrictor/agonist activity)” value [1] does the source give for `CCCCC/C=C\C/C=C\C/C=C\C/C=C\CCCC(=O)O` [arachidonic acid] here?
**A.** no significant effect; also recorded: does not constrict

**Q.** What about the “reduction of the vasoconstrictor response to 20-HETE” value [2] of the same compound?
**A.** 50%

**Q.** And the “effect of analog” value [2]?
**A.** very effective antagonists

**Q.** What does the source list for `CCCCC[C@H](O)/C=C/C=C\C/C=C\C/C=C\CCCC(=O)O` [15(S)-HETE]?
**A.** effect on the diameter of renal interlobular arteries (vasoconstrictor/agonist activity) [1]: no significant effect; effect on the diameter of renal interlobular arteries (vasoconstrictor/agonist activity) ([1]; listed as 15-HETE): no effect; effect of analog on the vasoconstrictor response to 20-HETE (antagonist activity) ([2]; listed as 15-HETE): completely blocked; also recorded: very effective antagonists; also recorded: blocked the vasoconstrictor response to 20-HETE

**Q.** What does the source list for `O=C(O)CCC/C=C\C/C=C\C/C=C\C/C=C\CCCCO` [C19-analog, 19-Hydroxynonadeca-5(Z),8(Z),11(Z),14(Z)-tetraenoic Acid]?
**A.** effect on the diameter of renal interlobular arteries (vasoconstrictor/agonist activity) ([1]; listed as 19-carbon analog of 20-HETE): no significant effect; effect on the diameter of renal interlobular arteries (vasoconstrictor/agonist activity) ([1]; listed as 19-carbon derivative of 20-HETE): no effect; effect of analog on the vasoconstrictor response to 20-HETE (antagonist activity) [2]: completely eliminated the response to 20-HETE; effect of analog on the vasoconstrictor response to 20-HETE (antagonist activity) ([2]; listed as C19 analog): very effective antagonists

**Q.** `O=C(O)CCC/C=C\C/C=C\C/C=C\C/C=C\CCCCCCO` [21-HETE, 21-Hydroxyheneicosa-5(Z),8(Z),11(Z),14(Z)-tetraenoic Acid] was tested. Which “effect … (vasoconstrictor/agonist activity)” value [1] did it give?
**A.** just as potent constrictors as 20-HETE

**Q.** What about the “effect … (vasoconstrictor/agonist activity)” value ([1]; listed as 21-carbon derivative) of the same compound?
**A.** just as potent vasoconstrictors as 20-HETE

**Q.** What does the source list for “Eicosatetraen-1,20-dioic Acid [20-carboxy-arachidonic acid]”?
**A.** effect on the diameter of renal interlobular arteries (vasoconstrictor/agonist activity) [1]: no significant effect; effect of analog on the vasoconstrictor response to 20-HETE (antagonist activity) [2]: no significant antagonistic properties

**Q.** With `O=C(O)CCCCCCCCCCCCCCCCCCO` [saturated 19-carbon analog, 19-Hydroxynonadecanoic Acid] as the compound, how does the “reduction of the vasoconstrictor response to 20-HETE” value [2] read?
**A.** about 50%

**Q.** And the “effect of analog” value [2]?
**A.** not as effective as the parent compounds

**Q.** What does the source list for `CCCCC/C=C\C[C@H](O)/C=C/C=C\C/C=C\CCCC(=O)O` [12(S)-HETE]?
**A.** effect on the diameter of renal interlobular arteries (vasoconstrictor/agonist activity) [1]: no significant effect; effect on the diameter of renal interlobular arteries (vasoconstrictor/agonist activity) ([1]; listed as 12-HETE): no effect; effect of analog on the vasoconstrictor response to 20-HETE (antagonist activity) [2]: no significant effect; effect of analog on the vasoconstrictor response to 20-HETE (antagonist activity) ([2]; listed as 12-HETE): did not antagonize

**Q.** For `CCCCC/C=C\C/C=C\C/C=C\C=C\[C@@H](O)CCCC(=O)O` [5(S)-HETE], which “effect … (vasoconstrictor/agonist activity)” value [1] is on record?
**A.** no significant effect

**Q.** What about the “effect … (vasoconstrictor/agonist activity)” value ([1]; listed as 5-HETE) of the same compound?
**A.** no effect

**Q.** What about the “effect of analog” value ([2]; listed as 5-HETE) of the same compound?
**A.** completely blocked; also recorded: very effective antagonists; also recorded: blocked the vasoconstrictor response to 20-HETE

**Q.** For `O=C(O)CCC/C=C\CCCCCCC/C=C\CCCCCO` [partially saturated 20-HETE derivative, 20-Hydroxyeicosa-5(Z),14(Z)-dienoic Acid], which “effect … (vasoconstrictor/agonist activity)” value [1] is on record?
**A.** potent a constrictor as 20-HETE

**Q.** And the “effect … (vasoconstrictor/agonist activity)” value ([1]; listed as partially saturated analog)?
**A.** retained vasoconstrictor activity

**Q.** Which “effect … (vasoconstrictor/agonist activity)” value [1] does the source give for `CCCCC/C=C\C/C=C\C=C\[C@@H](O)C/C=C\CCCC(=O)O` [8(S)-HETE] here?
**A.** no significant effect

**Q.** And the “effect … (vasoconstrictor/agonist activity)” value ([1]; listed as 8-HETE)?
**A.** no effect

**Q.** What about the “effect of analog” value [2] of the same compound?
**A.** no significant effect

**Q.** And the “effect of analog” value ([2]; listed as 8-HETE)?
**A.** did not antagonize

Source: patent US6605641B2, “20-HETE antagonists and agonists” (MCW Research Foundation, priority 1998, dated 2003)
